Measurements published in patent US20110039935A1, “USE OF PHARMACOLOGICALLY ACTIVE CHEMICAL COMPOUNDS” (ENTRESS AB, priority 2007, published 2011).
“Also recorded” adds a separate entry of the source.

Legend:
[1] = system: abdominal aorta sections of bypass and sham operated rats; experiment: Elastic recoil of aorta sections from bypass- and sham-operated rats given AKG; assay type: in vivo, Sprague Dawley rats
Experimental: A dissected portion of the abdominal aorta, prior to the right- and left common iliac arteries, was carefully cleaned to remove adhering tissues.
Force was measured using a FTO3 force displacement transducer (Grass Instrument, West Warwick, R.I.) connected to a home-built bridge amplifier which was interfaced with a 8S PowerLab A/D Converter (ADInstruments, Chalgrove, Oxfordshire, UK).
The recorded signal was adjusted to zero for un-tensioned aorta sections with the aid of an offset dial mounted on the pre-amplifier unit. Each aorta section was then exposed to approx. 5 step-wise increases in tension (each step being approx. 0.09 N), until a final maximal tension of 0.49 N (measured using the FT03 Grass Force transducer) was achieved. […] Aorta sections were subsequently removed and weighed.
(§1) LaPlace's equation assumes the tension (T) in the wall of a hollow cylinder is directly proportional to the cylinders radius (r) and the pressure (p) across the wall, caused by the flow inside the cylinder, such that T=p×r. If one assumes that the tension in the wall of the aorta sections is equivalent to that recorded by the force transducer as the result of a manual stretch, then the pressure that would have given rise to such an increase in tension can be calculated using LaPlace's equation and the measured radius of each aorta section.
Data are presented as mean±SE.

[2] = system: excised aorta sections of elderly mice; experiment: Robustness of aorta sections to stretch (successful stretches without rupture); assay type: in vivo, NMRI mice; settings: for number of successful stretches without rupture, First Replicate / number of successful stretches without rupture, Second Replicate: 0.49 N max. tension stepwise, control 4 out of 6; for successful stretches without rupture, Mean (%): mean of two replicates, control 66.7
Experimental: (§2) Female NMRI mice, aged 50 weeks at the start of the trial, were housed at the animal facilities of the Department of Cell & Organism Biology, Lund University, Sweden. The animals were raised under the same conditions with a 12/12 hour light-dark cycle. Mice were fed rodent pellets ad libitum (Altromin no. 1314 Spezialfutterwerke, Lage, Germany) and given free access to drinking water. […] Mice in Group 1 were fed rodent pellets plus (2% w/v) Na2−AKG 2H2O (n=6), whilst mice in Group 2 were fed rodent pellets plus (2% w/v) Ca−AKG H2O (n=6). Mice allocated to Group 3 were only fed rodent pellets and were considered to be the Control group (n=6). The level of AKG fed as a supplement to the diet represented 2% of the voluntary feed intake of the mice, which was approx. 10-15% of body weight per day.
(§3) Aorta sections were suspended vertically, and in duplicate. The recorded signal was adjusted to zero for un-tensioned aorta sections with the aid of an offset dial mounted on the pre-amplifier unit. Each aorta section was then exposed to approx. 5 step-wise increases in tension (each step being approx. 0.09 N), until a final maximal tension of 0.49 N (measured using the FT03 Grass Force transducer) was achieved. This final level of tension was by no means close to the physiological maximum force recorded in aorta sections. The aorta sections were then allowed to relax totally before being exposed to repeat step-wise increases in tension a further two more times, in close succession. Aorta sections were subsequently removed and weighed.
In all the arteries studied, the initial stretch series (e.g. application of tension followed by relaxation) led to a decrease in elasticity with subsequent applications of tension. This effect may be compared to the sort of damage that would be expected to arise with a sudden increase in blood pressure (see FIG. 5).

[3] = system: abdominal aorta sections of elderly mice; settings: for elasticity of aorta sections (elastic recoil), first series of stretches: control 3.3×10^−5; for decrease in elastic recoil, second versus first series: repeated stretching protocol, control approximately 90%
Experimental: This time, experimental subjects that were in need of increased artery elasticity for a more general reason, namely advanced age, were studied.
as §2, with “Mice” for “Mice in Group 1 were fed rodent pellets plus (2% w/v) Na2−AKG 2H2O (n=6), whilst mice in Group 2 were fed rodent pellets plus (2% w/v) Ca−AKG H2O (n=6). Mice”
The mice were anaesthetized by exposure to 95% CO2 and killed by cervical dislocation. A dissected portion of the abdominal aorta, prior to the right- and left common iliac arteries, was carefully cleaned to remove adhering tissues. The aorta was cut into approx. 4.5 mm pieces with a diameter at rest of approx. 1 mm, and each piece was then securely attached at one end to a force transducer and at the other to a metal pin on a mounting block, as described in part (Harrison et al. Reprod Fertil Dev. 1997; 9(7):731-40, Harrison and Flatman Am J Physiol. 1999 December; 277(6 Pt 2):R1646-53).
Aorta sections were immersed into oxygenated and thermostatically controlled chambers (37° C.), having an internal depth and diameter of 5.5 and 3.2 cm, respectively, and holding 44 ml of phosphate buffered saline (0.15 M PBS, pH 7.4) comprising in mM; NaCl 136.91, KCl 2.68, Na2HPO4 8.08 and NaH2PO4 1.66. Force was measured using a FTO3 force displacement transducer (Grass Instrument, West Warwick, R.I.) connected to a home-built bridge amplifier which was interfaced with a 8S PowerLab A/D Converter (ADInstruments, Chalgrove, Oxfordshire, UK). […] The PowerLab 8S A/D converter was connected to an iBook G4 running Chart v.5.4 Software (AD Instruments, Australia). The data recording was at a sampling speed of 40.000 data samples per second (40 KHz) and the input impedance of the amplifier was 200 MΩ differential
as §3, with “This final level of tension was by no means close to the physiological maximum force recorded in aorta sections.” left out
This fall in the recording trace was measured over time using the Average Slope calculation available as part of Chart v.5.4 Software (AD Instruments, Australia).
as §1

[4] = elderly mice fed 2% w/v in pellets for 182 days, n=6, mean±SE

Row | SMILES | effect of AKG-intake on arterial elasticity in bypass-operated rats ([1]; B+AKG versus B−AKG, P=0.047) | effect of AKG-intake on aorta elasticity in sham-operated control rats ([1]; S+AKG versus S−AKG, P=0.44) | number of successful stretches without rupture, First Replicate [2] | number of successful stretches without rupture, Second Replicate [2] | successful stretches without rupture, Mean (%) [2] | elasticity of aorta sections (elastic recoil), first series of stretches [3, 4] | effect compared to Na−AKG group ([3]; elderly mice, arterial elasticity) | effect on arterial elasticity compared with the control mice ([3]; elderly mice, first stretch series (FIG. 4)) | decrease in elastic recoil, second versus first series [3] | uptake after enteral administration | elasticity of aorta sections (elastic recoil), second series of stretches ([3]; elderly mice fed 2% w/v in pellets for 182 days, n=6, mean±SE, control 3.4×10^−6)
1 | O=C(O)CCC(=O)C(=O)O [AKG, alpha-ketoglutaric acid] | significant effect; also recorded: positive effect | no effect | – | – | – | – | – | – | – | – | –
2 | O=C([O-])CCC(=O)C(=O)[O-].[Ca+2] [Ca−AKG, calcium alpha-ketoglutarate] | – | – | 4 out of 6 | 5 out of 6 | 75.0% | 6.4×10^−5±2.7×10^−6 N ms^−1 mg^−1 wet wt | better effects | significant effect | 94% | – | –
3 | O=C([O-])CCC(=O)C(=O)[O-].[Na+].[Na+] [Na−AKG, sodium alpha-ketoglutarate] | – | – | 4 out of 6 | 5 out of 6 | 75.0% | 4.3×10^−5±1.6×10^−6 N ms^−1 mg^−1 wet wt | – | – | 91% | faster uptake after enteral administration with higher peak blood levels | 3.7×10^−6±1.1×10^−6 N ms^−1 mg^−1 wet wt
